# Measurements from US9365522B2, “Pyrazole amide derivative” (AMGEN INC., priority 2015, dated 2016).
# Target: T1, human RORγ-LBD (Homo sapiens, UniProt P51449)
# T1 construct: made in house; host or cells: E. coli (BL-21)
# T1 sequence (P51449 262-518): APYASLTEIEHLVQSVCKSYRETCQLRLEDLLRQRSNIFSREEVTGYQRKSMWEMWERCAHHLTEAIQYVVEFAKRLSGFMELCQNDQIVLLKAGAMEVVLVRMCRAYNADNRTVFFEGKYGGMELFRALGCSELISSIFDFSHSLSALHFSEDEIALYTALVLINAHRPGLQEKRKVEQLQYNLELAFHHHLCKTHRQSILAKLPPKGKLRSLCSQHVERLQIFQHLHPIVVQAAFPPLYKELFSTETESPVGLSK
# Test: ROR gamma coactivator peptide recruitment Alphascreen assay (RORγ-LBD binding to GRIP1 coactivator peptide)
# Assay type: biochemical
# Conditions: 5 nM human RORγ-LBD, 30 nM 7-β-hydroxycholesterol, 50 nM biotinylated GRIP1 coactivator peptide, overnight incubation at room temperature; read-out: result (pIC50, RORγ coactivator peptide recruitment Alphascreen assay) (converted)
# How it was run: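 His/Flag-tagged human RORγ-LBD (aa 262-518, E. coli-expressed, 5 nM) with agonist 7-β-hydroxycholesterol (30 nM) and biotinylated GRIP1 LXXLL peptide (50 nM) in HEPES pH 7.4 buffer, 2.5% DMSO. Compound 1-in-2 dilutions; Alphascreen bead signal read after overnight incubation at room temperature; pIC50 calculated.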
row,SMILES,IC50
1,"C[C@@H]1C[C@@H](n2ncc(C(=O)N(CC(=O)c3c(Cl)cncc3Cl)CC3(F)CCCC3)c2C(F)(F)F)CC[C@@H]1C(=O)O [Example 810, (1S,2R,4S)-4-(4-((2-(3,5-dichloro-4-pyridinyl)-2-oxoethyl)((1-fluorocyclopentyl)methyl)carbamoyl)-5-(trifluoromethyl)-1H-pyrazol-1-yl)-2-methylcyclohexanecarboxylic acid]",3.09 nM
2,"C[C@@H]1C[C@@H](n2ncc(C(=O)N(CC(=O)c3c(Cl)cccc3Cl)CC3(C(F)(F)F)CC3)c2C(F)(F)F)CC[C@@H]1C(=O)O [Example 811, (1S,2R,4S)-4-(4-((2-(2,6-dichlorophenyl)-2-oxoethyl)((1-(trifluoromethyl)cyclopropyl)methyl)carbamoyl)-5-(trifluoromethyl)-1H-pyrazol-1-yl)-2-methylcyclohexanecarboxylic acid]",1.78 nM
3,"C[C@@H]1C[C@H](n2ncc(C(=O)N(CC(=O)c3c(Cl)cncc3Cl)CC(C)(C)C)c2C(F)(F)F)CC[C@H]1C(=O)O [Example 812, (1R,2R,4R)-4-(4-((2-(3,5-dichloro-4-pyridinyl)-2-oxoethyl)(2,2-dimethylpropyl)carbamoyl)-5-(trifluoromethyl)-1H-pyrazol-1-yl)-2-methylcyclohexanecarboxylic acid]",9.33 nM
4,"C[C@]1(CN(CC(=O)c2c(Cl)ccc(F)c2Cl)C(=O)c2cnn([C@H]3CC[C@](C)(C(=O)O)CC3)c2C(F)(F)F)CCCO1 [Example 814, trans-4-(4-((2-(2,6-dichloro-3-fluorophenyl)-2-oxoethyl)(((2R)-2-methyltetrahydro-2-furanyl)methyl)carbamoyl)-5-(trifluoromethyl)-1H-pyrazol-1-yl)-1-methylcyclohexanecarboxylic acid]",9.12 nM
5,"C[C@@]1(CN(CC(=O)c2c(Cl)ccc(F)c2Cl)C(=O)c2cnn([C@H]3CC[C@](C)(C(=O)O)CC3)c2C(F)(F)F)CCCO1 [Example 815, trans-4-(4-((2-(2,6-dichloro-3-fluorophenyl)-2-oxoethyl)(((2S)-2-methyltetrahydro-2-furanyl)methyl)carbamoyl)-5-(trifluoromethyl)-1H-pyrazol-1-yl)-1-methylcyclohexanecarboxylic acid]",12.9 nM
6,"C[C@@H]1C[C@@H](n2ncc(C(=O)N(CC(=O)c3c(Cl)cncc3Cl)[C@H]3CCC34CCC4)c2C(F)(F)F)CC[C@@H]1C(=O)O [Example 816, (1S,2R,4S)-4-(4-((2-(3,5-dichloro-4-pyridinyl)-2-oxoethyl)((1S)-spiro[3.3]hept-1-yl)carbamoyl)-5-(trifluoromethyl)-1H-pyrazol-1-yl)-2-methylcyclohexanecarboxylic acid]",4.47 nM
7,"C[C@@H]1C[C@@H](n2ncc(C(=O)N(CC(=O)c3c(Cl)cncc3Cl)[C@@H]3CCC34CCC4)c2C(F)(F)F)CC[C@@H]1C(=O)O [Example 817, (1S,2R,4S)-4-(4-((2-(3,5-dichloro-4-pyridinyl)-2-oxoethyl)((1R)-spiro[3.3]hept-1-yl)carbamoyl)-5-(trifluoromethyl)-1H-pyrazol-1-yl)-2-methylcyclohexanecarboxylic acid]",64.6 nM
8,"C[C@]1(C(=O)O)CC[C@H](n2ncc(C(=O)N(CC(=O)c3c(Cl)cncc3Cl)C[C@@H]3CC3(F)F)c2C(F)(F)F)CC1 [Example 818, trans-4-(4-((2-(3,5-dichloro-4-pyridinyl)-2-oxoethyl)(((1S)-2,2-difluorocyclopropyl)methyl)carbamoyl)-5-(trifluoromethyl)-1H-pyrazol-1-yl)-1-methylcyclohexanecarboxylic acid]",7.24 nM
9,"C[C@]1(C(=O)O)CC[C@H](n2ncc(C(=O)N(CC(=O)c3c(Cl)cncc3Cl)C[C@H]3CC3(F)F)c2C(F)(F)F)CC1 [Example 819, trans-4-(4-((2-(3,5-dichloro-4-pyridinyl)-2-oxoethyl)(((1R)-2,2-difluorocyclopropyl)methyl)carbamoyl)-5-(trifluoromethyl)-1H-pyrazol-1-yl)-1-methylcyclohexanecarboxylic acid]",50.1 nM
10,"C[C@@H]1C[C@@H](n2ncc(C(=O)N(CC(=O)c3c(Cl)cncc3Cl)C[C@H]3CCCO3)c2C(F)(F)F)CC[C@@H]1C(=O)O [Example 820, (1S,2R,4S)-4-(4-((2-(3,5-dichloro-4-pyridinyl)-2-oxoethyl)((2R)-tetrahydro-2-furanylmethyl)carbamoyl)-5-(trifluoromethyl)-1H-pyrazol-1-yl)-2-methylcyclohexanecarboxylic acid]",100 nM
11,"CC1(C)CC[C@H](CN(CC(=O)c2c(Cl)cccc2Cl)C(=O)c2cnn([C@H]3CC[C@](C)(C(=O)O)CC3)c2C(F)(F)F)O1 [Example 821, trans-4-(4-((2-(2,6-dichlorophenyl)-2-oxoethyl)(((2R)-5,5-dimethyltetrahydro-2-furanyl)methyl)carbamoyl)-5-(trifluoromethyl)-1H-pyrazol-1-yl)-1-methylcyclohexanecarboxylic acid]",9.77 nM
12,"CC1(CN(CC(=O)c2c(Cl)cncc2Cl)C(=O)c2cnn([C@@H]3CC[C@@H](C(=O)O)C(C)(C)C3)c2C(F)(F)F)CCC1 [Example 824, (1R,4R)-4-(4-((2-(3,5-dichloro-4-pyridinyl)-2-oxoethyl)((1-methylcyclobutyl)methyl)carbamoyl)-5-(trifluoromethyl)-1H-pyrazol-1-yl)-2,2-dimethylcyclohexanecarboxylic acid]",28.8 nM
13,"CC1(CN(CC(=O)c2c(Cl)cncc2Cl)C(=O)c2cnn([C@H]3CC[C@H](C(=O)O)C(C)(C)C3)c2C(F)(F)F)CCC1 [Example 825, (1S,4S)-4-(4-((2-(3,5-dichloro-4-pyridinyl)-2-oxoethyl)((1-methylcyclobutyl)methyl)carbamoyl)-5-(trifluoromethyl)-1H-pyrazol-1-yl)-2,2-dimethylcyclohexanecarboxylic acid]",1.38 nM
14,"C[C@@H]1C[C@@H](n2ncc(C(=O)N(CC(=O)c3c(Cl)cncc3Cl)C[C@H]3CCC(C)(C)O3)c2C(F)(F)F)CC[C@@H]1C(=O)O [Example 826, (1S,2R,4S)-4-(4-((2-(3,5-dichloro-4-pyridinyl)-2-oxoethyl)(((2R)-5,5-dimethyltetrahydro-2-furanyl)methyl)carbamoyl)-5-(trifluoromethyl)-1H-pyrazol-1-yl)-2-methylcyclohexanecarboxylic acid]",18.6 nM
15,"C[C@@H]1C[C@@H](n2ncc(C(=O)N(CC(=O)c3c(Cl)cncc3Cl)CC(C)(C)F)c2C(F)(F)F)CC[C@@H]1C(=O)O [Example 829, (1S,2R,4S)-4-(4-((2-(3,5-dichloro-4-pyridinyl)-2-oxoethyl)(2-fluoro-2-methylpropyl)carbamoyl)-5-(trifluoromethyl)-1H-pyrazol-1-yl)-2-methylcyclohexanecarboxylic acid]",9.55 nM
16,"C[C@@H]1C[C@@H](n2ncc(C(=O)N(CC(=O)c3c(Cl)cncc3Cl)CC3(C(F)(F)F)CC3)c2C(F)(F)F)CC[C@@H]1C(=O)O [Example 830, (1S,2R,4S)-4-(4-((2-(3,5-dichloro-4-pyridinyl)-2-oxoethyl)((1-(trifluoromethyl)cyclopropyl)methyl)carbamoyl)-5-(trifluoromethyl)-1H-pyrazol-1-yl)-2-methylcyclohexanecarboxylic acid]",2.69 nM
17,"C[C@@H]1C[C@@H](n2ncc(C(=O)N(CC(=O)c3c(Cl)cccc3Cl)CC(C)(C)F)c2C(F)(F)F)CC[C@@H]1C(=O)O [Example 831, (1S,2R,4S)-4-(4-((2-(2,6-dichlorophenyl)-2-oxoethyl)(2-fluoro-2-methylpropyl)carbamoyl)-5-(trifluoromethyl)-1H-pyrazol-1-yl)-2-methylcyclohexanecarboxylic acid]",2.63 nM
18,"CC(C)(F)CN(CC(=O)c1c(Cl)cccc1Cl)C(=O)c1cnn([C@H]2CC[C@](C)(C(=O)O)CC2)c1C(F)(F)F [Example 832, trans-4-(4-((2-(2,6-dichlorophenyl)-2-oxoethyl)(2-fluoro-2-methylpropyl)carbamoyl)-5-(trifluoromethyl)-1H-pyrazol-1-yl)-1-methylcyclohexanecarboxylic acid]",3.89 nM
19,"Cc1cc(Cl)c(C(=O)CN(CC2CCC(C)(C)CC2)C(=O)c2cnn([C@H]3CC[C@@H](C(=O)O)CC3)c2C(F)(F)F)c(Cl)n1 [Example 833, cis-4-(4-((2-(2,4-dichloro-6-methyl-3-pyridinyl)-2-oxoethyl)((4,4-dimethylcyclohexyl)methyl)carbamoyl)-5-(trifluoromethyl)-1H-pyrazol-1-yl)cyclohexanecarboxylic acid]",5.89 nM
20,"Cc1cc(Cl)c(C(=O)CN(CC2CCCCC2)C(=O)c2cnn([C@H]3CC[C@@H](C(=O)O)CC3)c2C(F)(F)F)c(Cl)n1 [Example 834, cis-4-(4-((cyclohexylmethyl)(2-(2,4-dichloro-6-methyl-3-pyridinyl)-2-oxoethyl)carbamoyl)-5-(trifluoromethyl)-1H-pyrazol-1-yl)cyclohexanecarboxylic acid]",10 nM
21,"Cc1cc(Cl)c(C(=O)CN(CC2CCC(C)(C)CC2)C(=O)c2cnn([C@H]3CC[C@](C)(C(=O)O)CC3)c2C(F)(F)F)c(Cl)n1 [Example 835, trans-4-(4-((2-(2,4-dichloro-6-methyl-3-pyridinyl)-2-oxoethyl)((4,4-dimethylcyclohexyl)methyl)carbamoyl)-5-(trifluoromethyl)-1H-pyrazol-1-yl)-1-methylcyclohexanecarboxylic acid]",251 nM
